Data set [1] has as its target T1, Interleukin-1 receptor-associated kinase 4 (Mus musculus) (UniProt Q8R4K2).
T1 sequence (whole entry): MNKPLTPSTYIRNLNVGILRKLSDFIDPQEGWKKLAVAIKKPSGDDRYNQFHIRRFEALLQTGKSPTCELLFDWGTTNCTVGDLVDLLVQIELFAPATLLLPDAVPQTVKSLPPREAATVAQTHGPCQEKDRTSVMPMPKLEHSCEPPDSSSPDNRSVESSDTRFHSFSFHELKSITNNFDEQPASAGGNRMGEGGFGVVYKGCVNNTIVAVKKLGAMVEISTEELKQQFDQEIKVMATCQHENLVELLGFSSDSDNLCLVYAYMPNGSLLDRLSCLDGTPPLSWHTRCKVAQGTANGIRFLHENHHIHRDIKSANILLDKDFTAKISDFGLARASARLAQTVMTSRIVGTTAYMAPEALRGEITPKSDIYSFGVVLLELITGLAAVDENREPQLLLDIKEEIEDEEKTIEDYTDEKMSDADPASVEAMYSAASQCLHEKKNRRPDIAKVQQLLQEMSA
The data set can be described thus: In vivo Inhibition of IRAK4 in LTA-treated BALB/c mouse assessed as suppression of IL-6 level in serum at 3 mg/kg by ELISA relative to control. The format is functional, organism-based. A general note: An ELISA detects its analyte on a solid surface through an enzyme-linked reagent.

In data set [2] the target is T2, Tyrosine-protein kinase receptor TYRO3 (Homo sapiens, UniProt Q06418).
T2 sequence (Q06418 whole entry): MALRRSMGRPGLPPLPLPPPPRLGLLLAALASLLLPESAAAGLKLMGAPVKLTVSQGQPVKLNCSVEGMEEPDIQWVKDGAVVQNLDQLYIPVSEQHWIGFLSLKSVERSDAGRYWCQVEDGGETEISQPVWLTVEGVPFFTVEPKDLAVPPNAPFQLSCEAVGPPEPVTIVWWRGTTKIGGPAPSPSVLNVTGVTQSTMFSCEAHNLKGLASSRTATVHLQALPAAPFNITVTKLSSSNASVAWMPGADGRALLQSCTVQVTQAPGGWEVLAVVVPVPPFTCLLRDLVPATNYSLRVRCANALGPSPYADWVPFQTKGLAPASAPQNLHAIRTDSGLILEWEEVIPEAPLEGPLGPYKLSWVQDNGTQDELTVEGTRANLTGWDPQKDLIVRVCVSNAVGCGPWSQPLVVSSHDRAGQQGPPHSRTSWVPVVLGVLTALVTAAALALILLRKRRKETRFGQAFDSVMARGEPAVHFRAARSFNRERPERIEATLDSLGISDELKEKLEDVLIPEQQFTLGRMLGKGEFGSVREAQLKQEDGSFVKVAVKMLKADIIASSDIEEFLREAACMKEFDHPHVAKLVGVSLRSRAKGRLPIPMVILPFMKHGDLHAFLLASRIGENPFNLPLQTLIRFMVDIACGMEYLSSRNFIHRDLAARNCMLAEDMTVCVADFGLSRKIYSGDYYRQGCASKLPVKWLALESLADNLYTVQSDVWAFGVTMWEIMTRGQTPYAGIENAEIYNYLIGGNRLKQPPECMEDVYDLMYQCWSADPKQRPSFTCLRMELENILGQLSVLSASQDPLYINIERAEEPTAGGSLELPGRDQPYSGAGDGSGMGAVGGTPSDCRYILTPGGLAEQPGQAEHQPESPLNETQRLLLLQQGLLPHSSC
The data set can be described thus: Inhibition of human wild type partial length TYRO3 (497 to 814 residues) expressed in bacterial expression system.

For data set [3], the species on record is Mus musculus. The data set can be described thus: animal or person. The note with it: C57BL/6, po, 144 h, read-out: INH.
The target in data set [4] is T1, Interleukin-1 receptor-associated kinase 4 (Mus musculus). Briefly: In vivo Inhibition of IRAK4 in LTA-treated BALB/c mouse assessed as suppression of IL-6 level in serum at 0.3 mg/kg by ELISA relative to control. The format is functional, organism-based.
A short description of data set [5]: Permeability across apical to basolateral side in human Caco2 cells. The note with it: Caco-2. (In general: Passage across Caco-2 layers is used to estimate intestinal permeability.)
The species named for data set [6] is Homo sapiens. The data set can be described thus: Selectivity index, ratio of IC50 for N-terminal His6-tagged human full length recombinant LCK expressed in baculovirus infected Sf21 cells to IC50 for IRAK4 (unknown origin).
For data set [7], the target named is T3, Interleukin-1 receptor-associated kinase 4 (Homo sapiens, UniProt Q9NWZ3).
T3 sequence (Q9NWZ3 whole entry): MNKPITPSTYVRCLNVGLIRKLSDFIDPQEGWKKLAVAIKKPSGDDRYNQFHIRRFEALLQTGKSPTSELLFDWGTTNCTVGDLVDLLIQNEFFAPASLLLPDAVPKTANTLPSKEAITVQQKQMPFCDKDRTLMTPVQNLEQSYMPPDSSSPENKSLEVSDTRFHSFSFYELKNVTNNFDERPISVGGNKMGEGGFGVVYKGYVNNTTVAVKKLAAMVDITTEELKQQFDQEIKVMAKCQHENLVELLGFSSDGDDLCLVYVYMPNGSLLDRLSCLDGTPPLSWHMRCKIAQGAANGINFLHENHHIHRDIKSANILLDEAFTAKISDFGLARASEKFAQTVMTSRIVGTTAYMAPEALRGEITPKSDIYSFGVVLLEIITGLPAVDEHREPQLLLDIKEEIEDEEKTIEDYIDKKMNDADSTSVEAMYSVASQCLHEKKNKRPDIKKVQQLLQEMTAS
The data set can be described thus: Inhibition of IRAK4 in human PBMC assessed as inhibition of LTA-induced IL-6 production preincubated for 30 mins followed by LTA-stimulation and measured after 5 hrs by ELISA. In kind it is cell-based.

Data set [8] is described as follows: Drug uptake in imiquimod-induced C57BL/6 mouse model of psoriasis at 3 mg/kg, po dosed via gavage twice daily and measured after 2 hrs by LC-MS analysis. In kind it is ADME, organism-based. The note with it: in vivo, read-out: Drug uptake.
A short description of data set [9]: Half life in mouse at 2 mg/kg, iv administered as infusion or 5 mg/kg, po via gavage measured up to 24 hrs by LC-MS analysis. The note with it: in vivo. In kind it is ADME, organism-based.
Data set [10] concerns the target T3, Interleukin-1 receptor-associated kinase 4. The data set can be described thus: Inhibition of IRAK4 (unknown origin) using FL-IPTSPITTTYFFFKKK peptide and ATP as substrate incubated for 60 mins by fluorescence based caliper assay.
For data set [11], the species on record is Homo sapiens. The data set can be described thus: Selectivity index, ratio of IC50 for recombinant N-terminal GST-tagged human cKit (544 to end residues) expressed in baculovirus infected Sf21 cells to IC50 for IRAK4 (unknown origin).
Data set [12] has as its target T1, Interleukin-1 receptor-associated kinase 4 (Mus musculus). Briefly: In vivo Inhibition of IRAK4 in LTA-treated BALB/c mouse assessed as suppression of IL-6 level in serum at 10 mg/kg by ELISA relative to control. The format is functional, organism-based.
Data set [13] can be described thus: Volume of distribution at steady state in mouse at 2 mg/kg, iv administered as infusion or 5 mg/kg, po via gavage measured up to 24 hrs by LC-MS analysis. The format is ADME, organism-based. The note with it: in vivo, read-out: Vdss.
A short description of data set [14]: Clearance in mouse at 2 mg/kg, iv administered as infusion or 5 mg/kg, po via gavage measured up to 24 hrs by LC-MS analysis. In kind it is ADME, organism-based. The following applies: in vivo.
Data set [15] can be described thus: Stability in mouse liver microsomes assessed as parent compound remaining measured after 10 mins. The format is ADME, Microsome. The note with it: read-out: Stability. In general terms: Liver microsomes are vesicles of endoplasmic reticulum, rich in cytochrome P450 enzymes.
Data set [16] can be described thus: AUC in mouse at 2 mg/kg, iv administered as infusion measured up to 24 hrs by LC-MS analysis. In kind it is ADME, organism-based. On the set-up: time < 24 hr, dose 2 mg/kg, route intravenous. The note with it: in vivo.

SMILES strings stand for the structures. Where only a bound is given, the exact number is not on record here.

As a reminder, the inhibition is the relative decrease from the control value, in per cent. By IC50 is commonly meant the midpoint of a concentration-inhibition curve. In general, Papp A→B refers to how fast a substance crosses the layer from the apical side. Low values mean slow passage, high ones fast passage. As a reminder, the half-life is the time needed for the level to fall by half in the phase considered. Lower therefore signals rapid decline. A word on the AUC: it is the area under the concentration-time curve, a measure of exposure. A high value points to high exposure.

Consider `CC(C)Nc1cc(Nc2nc3ccnn3cc2F)ncc1C(=O)NC[C@@H](F)C(C)(C)O`, for which the results for the inhibition in [1], in [4] and in data set [12] were 87%, 72% and 93%, respectively. For the same molecule, the values for the IC50 in [2], in data set [7] and in [10] were 980 nM, 370 nM and 3.4 nM, respectively. Further, in [3], the inhibition in vivo at 3 mg/kg came to 30%. The molecule also had a Papp A→B in data set [5] of 21.5 ×10⁻⁶ cm/s. Also, the Ratio IC50 in data set [6] and in data set [11] was more than 590 in each case. Also, in data set [8], the concentration at 2 h stood at 1950 nM. In data set [9], this molecule had a half-life of 1.4 h. Besides, in data set [13], the Vd was found to be 2 L/kg. For the same molecule, the clearance in data set [14] was 15 mL/min/kg. In addition, in data set [15], the remaining at 10 min turned out to be 89%. This molecule displayed an AUC at 24 h in [16] of 5 µM·h.
